According to patent US7547519B2, “Methods of diagnosing multidrug resistant tuberculosis” (The United States of America as represented by the …, priority 2000, dated 2009):
≈ marks a conversion by molar mass, not a printed value.

Assays:
MSm = assay: microbe, parasite or virus in culture; format: cell-based, Mycobacterium smegmatis
MTb H37Rv = conditions: wild type MTb; cited from earlier work

CCc1cc(C(N)=S=O)ccn1 [ETA S-oxide]
absolute MIC compared with ETA (MSm): lower
effect of EtaR/EtaA overexpression on susceptibility (MSm): EtaR conferred resistance and EtaA conferred hypersensitivity

NNC(=O)c1ccncc1 [INH, isoniazid]
susceptibility to killing (MSm): equally susceptible

CCc1cc(C(N)=S)ccn1 [ETA, ethionamide]
concentration at which growth occurred (MSm): 50 µg/mL
concentration at which transformants were able to grow (MSm): greater than 200 μg/ml
concentration with noticeable growth inhibition (MSm): 2.5 µg/mL
MIC (MSm; Mycolicibacterium smegmatis): > 62.5 µg/mL
MIC (MTb H37Rv): 1.0 µg/mL (≈ 6.02 µM)
